Test results from ChEMBL document CHEMBL1201862, “PubChem BioAssay data set” (2004).
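Cells were grown in 96-well plates and exposed to each compound for 48 hours at five concentrations; endpoints were interpolated linearly between bracketing concentrations, or set to the highest concentration if not reached. GI50 is the concentration that inhibits growth by half.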 The source made the active and inactive calls. Cut-off read from the data, not from the text of the source: active = GI50 up to about 1.1 µM and inactive = higher. Non-standard residues stand in square brackets, D forms with d. Residues, ends and D or L forms follow the SMILES beside them. ξ: configuration not given here. *: point of attachment. NMeF = CN[C@@H](Cc1ccccc1)C(=O)O; NMeV = CN[C@H](C(=O)O)C(C)C; ξNMeV = CNC(C(=O)O)C(C)C; Boc = CC(C)(C)OC(=O)*; OBn = c1ccc(CO*)cc1

Tests used:
Assay in all cases: NCI anticancer screen, dose series, 48 h
HOP-18 = test system: HOP-18
HOP-92 = test system: HOP-92
NCI-H23 = test system: NCI-H23
U-251 = test system: U-251
DMS-273 = test system: DMS-273
HCT-15 = test system: HCT-15
DMS-114 = test system: DMS-114
SNB-78 = test system: SNB-78
COLO 205 = test system: COLO 205
XF498 = test system: XF498
SF-295 = test system: SF-295
HL-60 = test system: HL-60
CCRF-CEM = test system: CCRF-CEM
SK-MEL-28 = test system: SK-MEL-28
SW-620 = test system: SW-620
Malme-3M = test system: Malme-3M
786-0 = test system: 786-0
CAKI-1 = test system: CAKI-1
A549 = test system: A549
KM-20L2 = test system: KM-20L2
HOP-62 = test system: HOP-62
HCC 2998 = test system: HCC 2998
LXFL 529 = test system: LXFL 529
LOX IMVI = test system: LOX IMVI
SK-OV-3 = test system: SK-OV-3
DLD-1 = test system: DLD-1
OVCAR-3 = test system: OVCAR-3
SF-268 = test system: SF-268
OVCAR-8 = test system: OVCAR-8
IGROV-1 = test system: IGROV-1
OVCAR-4 = test system: OVCAR-4
RXF 393 = test system: RXF 393
NCI-H460 = test system: NCI-H460
SN12C = test system: SN12C
M19-MEL = test system: M19-MEL
HT-29 = test system: HT-29
TK-10 = test system: TK-10
EKVX = test system: EKVX
K562 = test system: K562
ACHN = test system: ACHN
M14 = test system: M14
UACC-62 = test system: UACC-62
UO-31 = test system: UO-31
SR = test system: SR
OVCAR-5 = test system: OVCAR-5
HCT-116 = test system: HCT-116
SF-539 = test system: SF-539
UACC-257 = test system: UACC-257
SNB-75 = test system: SNB-75
NCI-H226 = test system: NCI-H226
SK-MEL-2 = test system: SK-MEL-2
A498 = test system: A498
KM12 = test system: KM12
MOLT-4 = test system: MOLT-4
NCI-H522 = test system: NCI-H522
RPMI-8226 = test system: RPMI-8226
SK-MEL-5 = test system: SK-MEL-5
SNB-19 = test system: SNB-19

## CCOC(=O)C1(CC)CCCCC(=O)N1 (stereo unspecified)
HOP-18
  GI50: > 100 µM (inactive)
HOP-92
  GI50: > 100 µM (inactive)
NCI-H23
  GI50: > 100 µM (inactive)
U-251
  GI50: > 100 µM (inactive)
DMS-273
  GI50: > 100 µM (inactive)
HCT-15
  GI50: > 100 µM
DMS-114
  GI50: > 100 µM (inactive)
SNB-78
  GI50: > 100 µM (inactive)
COLO 205
  GI50: > 100 µM (inactive)
XF498
  GI50: > 100 µM (inactive)
SF-295
  GI50: > 100 µM (inactive)
HL-60
  GI50: 36.2 µM (inactive)
CCRF-CEM
  GI50: > 100 µM (inactive)
SK-MEL-28
  GI50: > 100 µM (inactive)
SW-620
  GI50: > 100 µM (inactive)
Malme-3M
  GI50: > 100 µM (inactive)
786-0
  GI50: > 100 µM (inactive)
CAKI-1
  GI50: > 100 µM (inactive)
A549
  GI50: > 100 µM (inactive)
KM-20L2
  GI50: > 100 µM (inactive)
HOP-62
  GI50: > 100 µM (inactive)
HCC 2998
  GI50: > 100 µM (inactive)
LXFL 529
  GI50: > 100 µM (inactive)
LOX IMVI
  GI50: > 100 µM (inactive)
SK-OV-3
  GI50: > 100 µM (inactive)
DLD-1
  GI50: > 100 µM (inactive)
OVCAR-3
  GI50: > 100 µM (inactive)
SF-268
  GI50: > 100 µM (inactive)
OVCAR-8
  GI50: > 100 µM (inactive)
IGROV-1
  GI50: > 100 µM (inactive)
OVCAR-4
  GI50: > 100 µM (inactive)
RXF 393
  GI50: > 100 µM (inactive)
NCI-H460
  GI50: > 100 µM (inactive)
SN12C
  GI50: > 100 µM (inactive)
M19-MEL
  GI50: > 100 µM (inactive)
HT-29
  GI50: > 100 µM (inactive)
TK-10
  GI50: > 100 µM (inactive)
EKVX
  GI50: > 100 µM (inactive)
K562
  GI50: > 100 µM (inactive)
ACHN
  GI50: > 100 µM (inactive)
M14
  GI50: > 100 µM (inactive)
UACC-62
  GI50: > 100 µM (inactive)
UO-31
  GI50: > 100 µM (inactive)

## CC(C)C(C(=O)N(C)[C@H](C(=O)N1CCC[C@H]1C(=O)N(C)[C@@H](Cc1ccccc1)C(=O)OCc1ccccc1)C(C)C)N(C)C(=O)[C@@H](NC(=O)OC(C)(C)C)C(C)C (stereo partly specified) (Boc-V[ξNMeV][NMeV]P[NMeF]-OBn)
SR
  GI50: 7.36 µM (inactive)
OVCAR-5
  GI50: > 31.6 µM (inactive)
HCT-116
  GI50: 10.8 µM (inactive)
SF-539
  GI50: > 31.6 µM (inactive)
UACC-257
  GI50: 9.33 µM (inactive)
HOP-18
  GI50: 32.1 µM (inactive)
HOP-92
  GI50: 10.2 µM (inactive)
NCI-H23
  GI50: 19.5 µM (inactive)
U-251
  GI50: > 31.6 µM (inactive)
SNB-75
  GI50: 12 µM (inactive)
DMS-273
  GI50: 5.48 µM (inactive)
HCT-15
  GI50: 8.65 µM
DMS-114
  GI50: 11 µM (inactive)
SNB-78
  GI50: > 31.6 µM (inactive)
COLO 205
  GI50: 11.4 µM (inactive)
XF498
  GI50: 6.19 µM (inactive)
SF-295
  GI50: 19.8 µM (inactive)
HL-60
  GI50: 4.58 µM (inactive)
CCRF-CEM
  GI50: 11.2 µM (inactive)
SK-MEL-28
  GI50: > 31.6 µM (inactive)
NCI-H226
  GI50: > 63.5 µM (inactive)
SW-620
  GI50: > 31.6 µM (inactive)
Malme-3M
  GI50: 34.8 µM (inactive)
786-0
  GI50: > 43.3 µM (inactive)
CAKI-1
  GI50: > 31.6 µM (inactive)
A549
  GI50: 18.7 µM (inactive)
KM-20L2
  GI50: > 31.6 µM (inactive)
HOP-62
  GI50: > 31.6 µM (inactive)
HCC 2998
  GI50: > 10 µM (inactive)
LXFL 529
  GI50: 15.1 µM (inactive)
LOX IMVI
  GI50: 23.9 µM (inactive)
SK-OV-3
  GI50: > 31.6 µM (inactive)
SK-MEL-2
  GI50: > 31.6 µM (inactive)
A498
  GI50: 19.5 µM (inactive)
KM12
  GI50: > 10 µM (inactive)
DLD-1
  GI50: 24.9 µM (inactive)
OVCAR-3
  GI50: 15.3 µM (inactive)
SF-268
  GI50: > 31.6 µM (inactive)
OVCAR-8
  GI50: > 31.6 µM (inactive)
IGROV-1
  GI50: 22.5 µM (inactive)
OVCAR-4
  GI50: > 29.5 µM (inactive)
MOLT-4
  GI50: 5.37 µM (inactive)
RXF 393
  GI50: 24.6 µM (inactive)
NCI-H460
  GI50: 15.8 µM (inactive)
NCI-H522
  GI50: > 100 µM (inactive)
SN12C
  GI50: > 100 µM (inactive)
RPMI-8226
  GI50: 4.97 µM (inactive)
M19-MEL
  GI50: 30 µM (inactive)
HT-29
  GI50: 14.2 µM (inactive)
TK-10
  GI50: 29.2 µM (inactive)
SK-MEL-5
  GI50: 7.14 µM (inactive)
EKVX
  GI50: > 31.6 µM (inactive)
K562
  GI50: 4.42 µM (inactive)
ACHN
  GI50: > 57.4 µM (inactive)
M14
  GI50: 85.1 µM (inactive)
UACC-62
  GI50: > 31.6 µM (inactive)
UO-31
  GI50: 30.4 µM (inactive)
SNB-19
  GI50: > 31.6 µM (inactive)
